Test results as given in patent publication US20060079677A1, “Novel tricyclic azepine derivatives, method for production thereof and pharmaceutical compositions comprising the same” (priority 2003, published 2006).

How the values were obtained:
[1] = test system: KB-3-1 human epidermoid carcinoma; assay: In vitro cytotoxicity, Microculture Tetrazolium Assay; format: cell-based; settings: 96 h, KB-3-1, incubated 4 days, inhibition of proliferation by 50%
Protocol: (§1) Five cell lines were used: • 1 murine leukaemia, L1210, • 1 non-small-cell human lung carcinoma, A549, • 1 human epidermoid carcinoma, KB-3-1, and the corresponding resistant line, KB-A1, whose multi-drug resistance was induced using adriamycin (ADR), • 1 human colon carcinoma, HT29.
(§2) The cells are cultured in RPMI 1640 complete culture medium comprising 10% foetal calf serum, 2 mM glutamine, 50 units/ml of penicillin, 50 μg/ml of streptomycin and 10 mM Hepes, pH 7.4. The cells are distributed on microplates and are exposed to the cytotoxic compounds. The cells are then incubated for 2 days (L1210) or 4 days (A549, KB-A1, KB-3-1, HT29). The number of viable cells is then quantified by a colorimetric assay, the Microculture Tetrazolium Assay (Cancer Res. 1987, 47, 936-942).
(§3) The results are expressed as IC50, the concentration of cytotoxic agent that inhibits the proliferation of the treated cells by 50%.

L1210 murine leukaemia = assay: as above; format: cell-based; settings: Mus musculus, 48 h; L1210, incubated 2 days, inhibition of proliferation by 50%
Protocol: as §1, §2, §3

[2] = test system: HT29 human colon carcinoma; assay: as above; format: cell-based; settings: HT-29, 96 h, HT29, incubated 4 days, inhibition of proliferation by 50%
Protocol: as §1, §2, §3

[3] = test system: A549 non-small-cell human lung carcinoma; assay: as above; format: cell-based; settings: 96 h, A549, incubated 4 days, inhibition of proliferation by 50%
Protocol: as §1, §2, §3

[4] = test system: KB-A1 resistant line (multi-drug resistance induced using adriamycin); assay: as above; format: cell-based, human
Protocol: as §1, §2, §3

L1210 cells = assay: Action on the cell cycle; format: cell-based, murine; settings: 25 nM, after 21 hours (untreated cells: 20%)
Protocol: L1210 cells are incubated for 21 hours at 37° C. in the presence of various concentrations of test compounds. The cells are then fixed using 70% ethanol (v/v), washed twice in PBS and incubated for 30 minutes at 20° C. in PBS that contains 100 μg/ml of RNAse and 50 μg/ml of propidium iodide. The results are expressed as a percentage of the cells that have accumulated in the G2+M phases after 21 hours compared with the control.

Work on COc1ccc(CCN2C=CC=C3C2=Nc2ccccc2OS3(=O)=O)cc1 [Example 42, 1-[2-(4-Methoxyphenyl)ethyl]-1H-pyrido[3,2-c][1,2,5]benzoxathiazepine 5,5-dioxide] yielded an IC50 [1] of 15.6 nM, an IC50 (L1210 murine leukaemia) of 8.2 nM and an IC50 [2] of 9.8 nM. For the same compound, the IC50 [3] was 11.3 nM, the IC50 ([4]; Homo sapiens, 96 h, KB-A1, incubated 4 days, inhibition of proliferation by 50%) was 13.3 nM and the “recognition by P-glycoprotein (resistant line KB-A1 versus sensitive line KB-3-1)” value ([4]; KB-A1 as sensitive as KB-3-1) was “not recognised by P-glycoprotein”. For the same compound, the “percentage of the cells accumulated in the G2+M phases” value (L1210 cells) was 80-90%.
